Earlier results in paper PMC12308805, “Ultrahigh-Throughput Virtual Screening Strategies against PPI Targets: A Case Study of STAT Inhibitors” (Journal of Chemical Information and Modeling, 2025).
Square brackets hold non-standard residues; d marks the D form. Peptide text beside a SMILES is read from it. * marks the point of attachment. pY = N[C@@H](Cc1ccc(OP(=O)(O)O)cc1)C(=O)O; Hydrocinnamoyl = O=C(CCc1ccccc1)*; Hyp = O=C(O)[C@@H]1C[C@@H](O)CN1

system: STAT3; details: sheet 6QHD_actives_decoys, retrospective screening set for STAT3 SH2 domain (PDB 6QHD); decoys are presumed inactives, not tested; ref DUD-E; cited from earlier work

Structure (SMILES) | Type
CCCOC(=O)c1ccc(OCC(=O)N/N=C(/S)NC(=O)c2ccccc2[N+](=O)[O-])cc1 [Decoy731] | Inactive (Decoy)
CCOC(=O)C1=C(CN2CCN(CC(=O)Nc3cccc(F)c3)CC2)NC(=O)N[C@@H]1CC [Decoy866] | Inactive (Decoy)
CCOC(=O)c1[nH]c(C)c(C(=O)C2=C(O)C(=O)N(CCCn3ccnc3)[C@H]2c2cc(OC)c(OC)c(OC)c2)c1C [Decoy756] | Inactive (Decoy)
CC(=O)Nc1ccc(S(=O)(=O)NCCCCNc2ccc([N+](=O)[O-])c3cccnc23)cc1 [Decoy809] | Inactive (Decoy)
CCCN[C@H](c1cc(F)ccc1Cl)c1cc(C)ccc1Br [Decoy850] | Inactive (Decoy)
CCOc1ccc(-n2c(Cc3cc(=O)[nH]c(=O)[nH]3)nnc2SCC(=O)Nc2ccc(F)cc2)cc1 [Decoy796] | Inactive (Decoy)
C[C@H]1CN(S(=O)(=O)c2ccc(C(=O)Nc3ccc(S(=O)(=O)Nc4nccs4)cc3)cc2)C[C@H](C)O1 [Decoy868] | Inactive (Decoy)
CC1(C)[C@]2(C(=O)NCCN(CCNC(=O)[C@]34CC[C@](C)(C(=O)C3)C4(C)C)CCNC(=O)[C@]34CC[C@](C)(C(=O)C3)C4(C)C)CC[C@@]1(C)C(=O)C2 [Decoy839] | Inactive (Decoy)
C[C@H](CCC(=O)NCCS(=O)(=O)O)[C@H]1CC[C@H]2[C@H]3[C@H](O)C[C@@H]4C[C@H](OS(=O)(=O)O)CC[C@]4(C)[C@H]3C[C@H](O)[C@]12C [Decoy830] | Inactive (Decoy)
CCc1ccc2[nH]c(=O)c(CN(CCc3ccc(OC)c(OC)c3)Cc3nnnn3Cc3ccccc3)cc2c1 [Decoy770] | Inactive (Decoy)
Cc1nnc(CSc2nnc(NC(=O)CSc3n[nH]c(N/N=C/c4ccncc4)n3)s2)o1 [Decoy801] | Inactive (Decoy)
CCN1C[C@]2(COC)[C@H](O)C[C@H](OC)[C@@]34[C@@H]2[C@@H](OC)[C@@H]([C@@H]13)[C@]1(OC(C)=O)[C@H]2[C@@H](OC(=O)c3ccccc3)[C@](O)(C[C@]24O)[C@@H](OC)[C@@H]1O [Decoy802] | Inactive (Decoy)
COc1cc([C@H]2OC[C@H]3[C@@H]2CO[C@H]3c2ccc(O[C@@H]3O[C@H](CO[C@@H]4O[C@@H](C)[C@H](O)[C@@H](O)[C@H]4O)[C@@H](O)[C@H](O)[C@H]3O)c(OC)c2)ccc1O [Decoy911] | Inactive (Decoy)
CCOc1ccccc1NC(=O)CSC1=C(C#N)[C@H](c2ccco2)C(/C(O)=N/c2ccc(S(N)(=O)=O)cc2)=C(C)N1 [Decoy831] | Inactive (Decoy)
CCOC(=O)C1=C(C)NC(=O)N[C@H]1c1ccc(OCC(=O)N/N=C/c2cc(C)n(-c3ccc(Cl)c(Cl)c3)c2C)c(OC)c1 [Decoy745] | Inactive (Decoy)
COc1ccc(N/C(=N/C(=O)c2ccc(OC)c(OC)c2)NCCc2c(C)nn(C)c2C)cc1OC [Decoy827] | Inactive (Decoy)
CC(C)(O)[C@@H](O)CC[C@@H](CO)[C@H]1CC[C@]2(C)C3=C(C[C@H](O)[C@@]12C)[C@@]1(C)C[C@H](O)[C@H](OC(=O)C[C@](C)(O)CC(=O)NCC(=O)O)C(C)(C)[C@H]1CC3 [Decoy836] | Inactive (Decoy)
COc1cccc(/C=N/NC(=O)[C@H](C)Sc2nnc(S[C@H](C)C(=O)N/N=C/c3cccc(OC)c3OC)s2)c1OC [Decoy736] | Inactive (Decoy)
CC1(C)CC[C@]2(C(=O)O[C@@H]3O[C@H](CO)[C@@H](O)[C@H](O)[C@H]3O)CC[C@]3(C)C(=CC[C@H]4[C@@]5(C)CC[C@H](O[C@H]6OC[C@@H](O)[C@@H](O)[C@@H]6O)[C@@](C)(CO)[C@H]5CC[C@]43C)[C@@H]2C1 [Decoy930] | Inactive (Decoy)
COc1ccc(NC(=O)CSc2nnc(NC(=O)c3cc(OC)c(OC)c(OC)c3)s2)cc1OC [Decoy923] | Inactive (Decoy)
COc1cc(CNC(=O)CSc2n[nH]c(N/N=C/c3cc(OC)c(O)cc3[N+](=O)[O-])n2)cc(OC)c1 [Decoy737] | Inactive (Decoy)

same assay, conditions: sheet 6QHD_actives_decoys; known STAT3 actives of the retrospective screening set; ref ChEMBL / literature; cited from earlier work

Structure (SMILES) | Type (known STAT3 active)
CC(=O)N[C@@H](Cc1ccc(OP(=O)(O)O)cc1)C(=O)N[C@@H](CC(C)C)C(=O)N1CCC[C@H]1C(=O)N[C@H](CCC(N)=O)C(N)=O [CHEMBL160658] (Ac-[pY]LP[dQ]-NH2) | Active
CC(C)C[C@H](NC(=O)[C@H](Cc1ccc(OP(=O)(O)O)cc1)NC(=O)CCc1ccccc1)C(=O)N1CCC[C@H]1C(=O)N[C@@H](CCC(N)=O)C(=O)N[C@H](C(N)=O)[C@@H](C)O [CHEMBL197844] (Hydrocinnamoyl-[pY]LPQT-NH2) | Active
CC(C)NC(=O)[C@H](CCC(N)=O)NC(=O)[C@@H]1Cc2cccc3c2N1C(=O)[C@@H](NC(=O)/C=C/c1ccc(OP(=O)(O)O)cc1)CC3 [CHEMBL447460] | Active
CC(=O)N[C@@H](Cc1ccc(OP(=O)(O)O)cc1)C(=O)N[C@@H](CC(C)C)C(=O)N1C[C@H](O)C[C@H]1C(=O)N[C@@H](CCC(N)=O)C(=O)N[C@H](C(N)=O)[C@@H](C)O [CHEMBL372429] (Ac-[pY]L[Hyp]QT-NH2) | Active
CC(=O)NC[C@H](CCC(N)=O)NC(=O)[C@@H]1CCCN1C(=O)[C@H](CC(C)C)NC(=O)/C=C/c1ccc(OP(=O)(O)O)cc1 [CHEMBL573442] | Active

same assay, conditions: sheet 6QHD_actives_decoys; retrospective screening set for STAT3 SH2 domain (PDB 6QHD); […]; ref DUD-E; cited from earlier work

Structure (SMILES) | Type
COc1cc(-n2c(O)c([C@H]3OC(=O)c4c3ccc(OC)c4OC)c(O)nc2=S)cc(OC)c1OC [Decoy716] | Inactive (Decoy)
Cc1ccc(NC(=O)CCC(=O)NNC(=O)CCCCC(=O)NNC(=O)CCC(=O)Nc2ccc(C)c(C)c2)cc1C [Decoy444] | Inactive (Decoy)
COc1cc(NS(=O)(=O)c2ccc(NC(=S)NC(=O)c3cc(Cl)cc(Cl)c3)cc2)ncn1 [Decoy392] | Inactive (Decoy)
O=C(CCC(=O)Nc1ccc(S(=O)(=O)Nc2nccs2)cc1)Nc1ccc(S(=O)(=O)Nc2nccs2)cc1 [Decoy422] | Inactive (Decoy)

same assay, conditions: sheet 6QHD_actives_decoys; retrospective screening set for STAT3 SH2 domain (PDB 6QHD); decoys generated with DUD-E and presumed inactive, not tested; ref DUD-E; cited from earlier work

Structure (SMILES) | Type
CCOC(=O)c1c(NC(=O)CCSc2nnc(N/N=C/c3ccc(C)cc3)n2N)sc2c1CCCC2 [Decoy449] | Inactive (Decoy)
COC(=O)[C@H]1O[C@H](OCC(=O)[C@@]2(O)CC[C@H]3[C@H]4CCC5=CC(=O)C=C[C@@]5(C)[C@@H]4[C@@H](O)C[C@@]32C)[C@@H](OC(C)=O)[C@H](OC(C)=O)[C@H]1OC(C)=O [Decoy634] | Inactive (Decoy)
CC(=O)N[C@@H](C=O)C[C@@H](O[C@@H]1O[C@H](COC(C)=O)[C@H](OC(C)=O)[C@H](OC(C)=O)[C@H]1OC(C)=O)[C@H](O)[C@H](O)CO [Decoy561] | Inactive (Decoy)
CCN[C@@H](c1ccc(I)cc1)c1ccc(OC)c(Br)c1 [Decoy431] | Inactive (Decoy)
COc1ccc(CCN2C(=O)[C@H]3[C@@H](C2=O)[C@]2(N[C@@H]3Cc3ccc(O)c(O)c3)C(=O)Nc3ccc(Cl)cc32)cc1OC [Decoy728] | Inactive (Decoy)
COc1cc(C(=O)NCC(=O)N/N=C/c2cc(Br)ccc2OC(=O)c2ccc(C)cc2)cc(OC)c1OC [Decoy362] | Inactive (Decoy)
CC[C@H]1OC(=O)[C@H](C)[C@@H](O[C@@H]2C[C@](C)(OC)[C@H](O)[C@H](C)O2)[C@H](C)[C@H](O[C@H]2O[C@@H](C)C[C@@H](N(C)C)[C@H]2O)[C@](C)(O)C[C@@H](C)/C(=N\OCOCCOC)[C@H](C)[C@@H](O)[C@]1(C)O [Decoy582] | Inactive (Decoy)
O=C(CCCCCNC(=O)CCCC[C@H]1SC[C@H]2NC(=O)N[C@@H]21)NC/C=C/c1cn([C@@H]2O[C@@H](CO[P@](=O)(O)O[P@](=O)(O)OP(=O)(O)O)[C@@H](O)[C@H]2O)c(=O)nc1O [Decoy440] | Inactive (Decoy)
C[C@H](OC(=O)[C@@](O)(Cc1ccc(O)cc1)[C@H](C)O)[C@@](O)(Cc1ccc(O)cc1)C(=O)OCc1ccc(O[C@H]2O[C@@H](CO)[C@@H](O)[C@@H](O)[C@H]2O)cc1 [Decoy621] | Inactive (Decoy)
COc1cc(/C=N/Nc2nc(SCC(=O)Nc3ccc(C)cc3C)n[nH]2)cc(OC)c1OC [Decoy584] | Inactive (Decoy)
COc1cc(/C=N/NC(=O)CCCCC(=O)N/N=C/c2cc(Br)c(O)c(OC)c2)cc(Br)c1O [Decoy433] | Inactive (Decoy)
Cc1ccc(S(=O)(=O)NCc2ccco2)cc1C(=O)NNC(=O)c1nn(-c2ccccc2)cc1O [Decoy610] | Inactive (Decoy)
COC(=O)c1ccc(S(=O)(=O)N(CCCO)Cc2cc3cc4c(cc3[nH]c2=O)OCCO4)cc1 [Decoy669] | Inactive (Decoy)
C=C[C@H]1[C@H](O[C@H]2O[C@@H](CO)[C@@H](O)[C@@H](O)[C@H]2O)OC=C(C(=O)OC)[C@H]1CCOC(=O)c1cc(O)c(O)c(O)c1 [Decoy700] | Inactive (Decoy)
COCCCNC(=O)C(=O)N/N=C/c1cc(I)c(OCC(=O)Nc2cccc(C(F)(F)F)c2)c(OC)c1 [Decoy573] | Inactive (Decoy)
CCN(CC)c1ccc(/C=N/NC(=O)CSc2nnc(-c3cc(OC)c(OC)c(OC)c3)n2-c2ccccc2)c(O)c1 [Decoy703] | Inactive (Decoy)
COC(=O)[C@@H]1O[C@H](OC/C(=N/NC(N)=O)[C@@]2(O)CC[C@@H]3[C@@H]4CC[C@@H]5C[C@H](OC(C)=O)CC[C@@]5(C)[C@H]4C(=O)C[C@]32C)[C@@H](OC(C)=O)[C@H](OC(C)=O)[C@H]1OC(C)=O [Decoy338] | Inactive (Decoy)
Nc1ncnc2c1ncn2[C@@H]1O[C@@H](CO[P@@](=O)(O)O[P@@](=O)(O)OC[C@H](O)[C@H](O)[C@H](O)C=O)[C@@H](O)[C@H]1O [Decoy402] | Inactive (Decoy)
CCOC(=O)c1ccc(NC(=O)CSc2ccc3nnc(CCNS(=O)(=O)c4ccc(OC)cc4)n3n2)cc1 [Decoy704] | Inactive (Decoy)
OC[C@@]1(O)CO[C@H](OC[C@H]2O[C@@H](O[C@H](CCCCc3ccc(O)cc3)CCc3ccc(O)cc3)[C@H](O[C@H]3OC[C@](O)(CO)[C@H]3O)[C@@H](O)[C@@H]2O)[C@@H]1O [Decoy685] | Inactive (Decoy)
Cc1nn(C)c(C)c1CCCN(C)c1ccc(NS(=O)(=O)c2ccc(C(C)C)cc2)cc1C(=O)O [Decoy642] | Inactive (Decoy)
